Measured values from patent US7528164B2, “Substituted 4-aryl-4h-pyrrolo[2,3-h]chromenes and analogs as activators of caspases and inducers of apoptosis and the use thereof” (Cytovia, Inc., priority 2002, dated 2009).
Where two headings read alike, the source gives them in different places.

Legend:
T-47D = experiment: Caspase cascade activation assay in T-47D cells (N-(Ac-DEVD)-N'-ethoxycarbonyl-R110 fluorogenic substrate); type: cell-based; details: T-47D human breast cancer cells, 24 h incubation; for EC50: sigmoidal dose-response, read-out: Caspase potency EC50; for Caspase activity (Ratio): ratio of net RFU of test compound to control
Experimental: (§1) Human breast cancer cell lines T-47D and ZR-75-1 were grown according to media component mixtures designated by American Type Culture Collection+10% FCS (Invitrogen Corporation), in a 5% CO2-95% humidity incubator at 37° C. T-47D and ZR-75-1 cells were maintained at a cell density between 30 and 80% confluency at a cell density of 0.1 to 0.6×10^6 cells/mL. Cells were harvested at 600×g and resuspended at 0.65×10^6 cells/mL into appropriate media+10% FCS. An aliquot of 45 μl of cells was added to a well of a 96-well microtiter plate containing 5 μl of a 10% DMSO in RPMI-1640 media solution containing about […] of 2-amino-3-cyano-4-(5-methyl-pyridin-3-yl)-7-methyl-4H-pyrrolo[2,3-h]chromene (Example 10) or other test compound (0.016 to 1 μM final). An aliquot of 45 μl of cells was added to a well of a 96-well microtiter plate containing 5 μl of a 10% DMSO in RPMI-1640 media solution without test compound as the control sample. The samples were mixed by agitation and then incubated at 37° C. for 24 h in a 5% CO2-95% humidity incubator. After incubation, the samples were removed from the incubator and 50 μl of a solution containing 20 μM of N-(Ac-DEVD)-N′-ethoxycarbonyl-R110 (SEQ ID No:1) fluorogenic substrate (Cytovia, Inc.; U.S. Pat. No. 6,335,429), 20% sucrose (Sigma), 20 mM DTT (Sigma), 200 mM NaCl (Sigma), 40 mM Na PIPES buffer pH 7.2 (Sigma), and 500 μg/ml lysolecithin (Calbiochem) was added. The samples were mixed by agitation and incubated at room temperature. Using a fluorescent plate reader (Model 1420 Wallac Instruments), an initial reading (T=0) was made approximately 1-2 min after addition of the substrate solution, employing excitation at 485 nm and emission at 530 nm, to determine the background fluorescence of the control sample. After the 3 h incubation, the samples were read for fluorescence as above (T=3 h).
(§2) The Relative Fluorescence Unit values (RFU) were used to calculate the sample readings as follows: RFU(T=3h)−Control RFU(T=0)=Net RFU(T=3h) The activity of caspase cascade activation was determined by the ratio of the net RFU value for 2-amino-3-cyano-4-(5-methyl-pyridin-3-yl)-7-methyl-4H-pyrrolo[2,3-h]chromene or other test compound to that of control samples. The EC50 (nM) was determined by a sigmoidal dose-response calculation (Prism 2.0, GraphPad Software Inc.).

ZR-75-1 = experiment: Caspase cascade activation assay in ZR-75-1 cells (N-(Ac-DEVD)-N'-ethoxycarbonyl-R110 fluorogenic substrate); type: cell-based; details: ZR-75-1 human breast cancer cells, 24 h incubation; for Caspase activity (Ratio): ratio of net RFU of test compound to control; for EC50: sigmoidal dose-response, read-out: Caspase potency EC50
Experimental: as §1, §2

EC50 (T-47D; T47D) [nM] | EC50 (ZR-75-1) [nM] | EC50 (T-47D) [nM] | Molecule | Caspase activity (Ratio) (T-47D) | Caspase activity (Ratio) (ZR-75-1)
3.4 | 2.2 | – | COc1cc(C2C(C#N)=C(N)Oc3c2ccc2c3ccn2C)cc(OC)c1OC (stereo not drawn) [Example 24, 2-Amino-3-cyano-4-(3,4,5-trimethoxyphenyl)-7-methyl-4H-pyrrolo[2,3-h]chromene] | 5.5 | 7.1
29 | 15 | – | Cn1ccc2c3c(ccc21)C(c1ccc(F)c(F)c1)C(C#N)=C(N)O3 (stereo not drawn) [Example 40G, 2-Amino-3-cyano-4-(3,4 difluorophenyl)-7-methyl-4H-pyrrolo[2,3-h]chromene] | 4.6 | 5.9
29 | 14 | – | Cn1ccc2c3c(ccc21)C(c1ccc(F)c(C#N)c1)C(C#N)=C(N)O3 (stereo not drawn) [Example 40J, 2-Amino-3-cyano-4-(3-cyano-4-fluorophenyl)-7-methyl-4H-pyrrolo[2,3-h]chromene] | 3.6 | 5.8
6.2 | 3.3 | – | COc1cc(C2C(C#N)=C(N)Oc3c2ccc2c3ccn2CO)cc(OC)c1OC (stereo not drawn) [Example 33, 2-Amino-3-cyano-4-(3,4,5-trimethoxyphenyl)-7-hydroxymethyl-4H-pyrrolo[2,3-h]chromene] | 4.3 | 3.0
3.7 | 2.4 | – | Cc1cncc(C2C(C#N)=C(N)Oc3c2ccc2c3ccn2CO)c1 (stereo not drawn) [Example 20, 2-Amino-3-cyano-4-(5-methyl-pyridin-3-yl)-7-hydroxymethyl-4H-pyrrolo[2,3-h]chromene] | 4.7 | 6.3
25 | 15 | – | Cn1ccc2c3c(ccc21)C(c1cc(Cl)cc(Cl)c1)C(C#N)=C(N)O3 (stereo not drawn) [Example 40D, 2-Amino-3-cyano-4-(3,5-dichlorophenyl)-7-methyl-4H-pyrrolo[2,3-h]chromene] | 3.3 | 2.9
110 | 41.3 | – | Cc1cncc(C2C(C#N)=C(N)Oc3c2ccc2c3ccn2C)n1 (stereo not drawn) [Example 2, 2-Amino-3-cyano-7-methyl-4-(6-methyl-pyrazin-2-yl)-4H-pyrrolo[2,3-h]chromene] | 8.2 | 4.3
28 | 10 | – | CN1CCc2c1ccc1c2OC(N)=C(C#N)C1c1cc(F)cc(F)c1 (stereo not drawn) [Example 35, 2-Amino-3-cyano-4-(3,5-difluorophenyl)-8,9-dihydro-7-methyl-4H-pyrrolo [2,3-h]chromene] | 4.3 | 5.5
7.2 | 3.3 | – | COc1cccc(C2C(C#N)=C(N)Oc3c2ccc2c3ccn2C)c1 (stereo not drawn) [Example 28, 2-Amino-3-cyano-4-(3-methoxyphenyl)-7-methyl-4H-pyrrolo[2,3-h]chromene] | 4.6 | 6.3
– | 259 | 413 | 2-Amino-4-(3-bromo-4,5-dimethoxyphenyl)-3-cyano-7-(2-diethyl-amino-ethyl)-4H-pyrrolo[2,3-h]chromene [Example 6] | 3.3 | 7.0
13 | 5 | – | Cc1cncc(C2C(C#N)=C(N)Oc3c2ccc2c3CCN2C)c1 (stereo not drawn) [Example 36, 2-Amino-4-(5-methyl-pyridin-3-yl)-3-cyano-7-methyl-8,9-dihydro-4H-pyrrolo[2,3-h]chromene] | 4.6 | 6.3

Molecule | EC50 (T-47D; T47D) [nM] | EC50 (ZR-75-1) [nM] | EC50 (T-47D) [nM] | Caspase activity (Ratio) (T-47D) | Caspase activity (Ratio) (ZR-75-1)
COc1cc(C2C(C#N)=C(N)Oc3c2ccc2c3c(C)cn2C)cc(Br)c1OC (stereo not drawn) [Example 40F, 2-Amino-3-cyano-4-(3-bromo-4,5-dimethoxyphenyl)-7,9-dimethyl-4H-pyrrolo[2,3-h]chromene] | 42 | 26 | – | 2.6 | 3.9
